Laboratory results: article PMC9329436, “Optimization of the 4-anilinoquin(az)oline scaffold as epidermal growth factor receptor (EGFR) inhibitors for chordoma utilizing a toxicology profiling assay platform” (Scientific Reports, 2022)
Read-outs that look alike come from different tables or passages of the source.

What was measured:
Assay type in all cases: biochemical
[1] = molecular target: 320 wild-type protein kinases (Homo sapiens, UniProt Q05655); details: PKC-delta, singlicate
Source text: (§1) Table S4. Profiling of two compounds at two concentrations against 320 wild-type protein kinases; singlicate measurement; Residual activities (% of control).

[2] = molecular target: 320 wild-type protein kinases (Homo sapiens, UniProt P78527); details: DNA-PK, singlicate
Source text: as §1

[3] = molecular target: 320 wild-type protein kinases (Homo sapiens, UniProt Q9UBS0); details: kinase S6K-beta, singlicate
Source text: as §1

[4] = molecular target: 320 wild-type protein kinases (Homo sapiens, UniProt Q14680); details: MELK, singlicate
Sequence of 320 wild-type protein kinases (Homo sapiens, UniProt Q14680) (Q14680 whole entry): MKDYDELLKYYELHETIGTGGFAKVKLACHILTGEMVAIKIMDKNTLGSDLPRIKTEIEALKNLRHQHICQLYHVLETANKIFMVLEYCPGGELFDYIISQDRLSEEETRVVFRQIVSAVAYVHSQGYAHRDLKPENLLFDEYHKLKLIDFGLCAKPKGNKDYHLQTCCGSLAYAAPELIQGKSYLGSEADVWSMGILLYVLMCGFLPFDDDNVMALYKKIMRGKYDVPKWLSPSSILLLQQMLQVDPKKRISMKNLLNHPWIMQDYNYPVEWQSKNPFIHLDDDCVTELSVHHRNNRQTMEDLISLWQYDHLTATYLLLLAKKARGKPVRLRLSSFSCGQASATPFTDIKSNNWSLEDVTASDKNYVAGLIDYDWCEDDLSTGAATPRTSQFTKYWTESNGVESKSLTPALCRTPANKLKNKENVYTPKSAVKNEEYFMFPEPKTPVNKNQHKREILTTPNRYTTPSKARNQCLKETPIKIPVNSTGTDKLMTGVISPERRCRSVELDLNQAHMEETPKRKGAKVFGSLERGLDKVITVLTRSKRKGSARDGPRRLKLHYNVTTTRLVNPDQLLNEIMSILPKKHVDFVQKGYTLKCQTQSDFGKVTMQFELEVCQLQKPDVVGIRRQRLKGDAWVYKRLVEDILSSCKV
Source text: as §1

[5] = molecular target: T1, 320 wild-type protein kinases (Homo sapiens, UniProt O14920); details: IKK-beta, singlicate
T1 sequence (O14920 1-756): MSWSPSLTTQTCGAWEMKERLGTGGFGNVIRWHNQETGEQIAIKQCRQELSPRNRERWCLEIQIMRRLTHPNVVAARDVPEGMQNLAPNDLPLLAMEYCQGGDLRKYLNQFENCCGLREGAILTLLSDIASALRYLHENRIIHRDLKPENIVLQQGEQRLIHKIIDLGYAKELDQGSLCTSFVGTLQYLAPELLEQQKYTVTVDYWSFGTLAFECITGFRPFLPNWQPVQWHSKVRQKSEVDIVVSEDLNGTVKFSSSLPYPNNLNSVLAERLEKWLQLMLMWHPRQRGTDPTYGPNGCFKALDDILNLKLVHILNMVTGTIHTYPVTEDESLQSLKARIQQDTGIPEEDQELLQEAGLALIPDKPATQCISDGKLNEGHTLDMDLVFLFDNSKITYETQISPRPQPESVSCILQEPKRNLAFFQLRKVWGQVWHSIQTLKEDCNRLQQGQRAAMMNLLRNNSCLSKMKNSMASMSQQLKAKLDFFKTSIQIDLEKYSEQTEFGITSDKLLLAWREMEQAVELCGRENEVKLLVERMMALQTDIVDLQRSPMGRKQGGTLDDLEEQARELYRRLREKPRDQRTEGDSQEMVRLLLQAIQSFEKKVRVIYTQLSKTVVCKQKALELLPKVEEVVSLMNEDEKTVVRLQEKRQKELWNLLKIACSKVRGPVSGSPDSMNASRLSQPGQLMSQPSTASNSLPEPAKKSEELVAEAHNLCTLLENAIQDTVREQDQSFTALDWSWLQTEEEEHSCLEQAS
Source text: as §1

[6] = molecular target: 320 wild-type protein kinases (Homo sapiens, UniProt Q8N568); details: singlicate
Sequence of 320 wild-type protein kinases (Homo sapiens, UniProt Q8N568) (Q8N568 whole entry): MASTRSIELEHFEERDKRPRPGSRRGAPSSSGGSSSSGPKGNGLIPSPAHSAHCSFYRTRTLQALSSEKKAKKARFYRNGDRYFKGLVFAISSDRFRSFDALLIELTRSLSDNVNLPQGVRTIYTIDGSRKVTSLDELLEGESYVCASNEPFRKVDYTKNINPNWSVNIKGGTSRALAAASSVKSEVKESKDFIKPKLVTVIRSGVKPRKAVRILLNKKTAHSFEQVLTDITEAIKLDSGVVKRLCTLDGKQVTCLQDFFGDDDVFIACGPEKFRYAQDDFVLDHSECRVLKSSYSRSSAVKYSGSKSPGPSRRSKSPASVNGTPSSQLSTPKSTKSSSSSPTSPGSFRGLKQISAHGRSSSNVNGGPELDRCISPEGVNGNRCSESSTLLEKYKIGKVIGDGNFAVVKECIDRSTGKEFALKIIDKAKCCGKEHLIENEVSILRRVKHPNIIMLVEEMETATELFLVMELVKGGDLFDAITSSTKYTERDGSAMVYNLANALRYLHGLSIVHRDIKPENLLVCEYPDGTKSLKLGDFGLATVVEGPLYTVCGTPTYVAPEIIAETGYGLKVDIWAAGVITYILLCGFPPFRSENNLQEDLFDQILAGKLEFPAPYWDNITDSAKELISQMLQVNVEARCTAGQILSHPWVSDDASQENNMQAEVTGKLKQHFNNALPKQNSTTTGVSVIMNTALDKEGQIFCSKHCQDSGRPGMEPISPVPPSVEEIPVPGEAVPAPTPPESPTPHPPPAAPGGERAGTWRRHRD
Source text: as §1

[7] = molecular target: 320 wild-type protein kinases (Homo sapiens, UniProt P36894); details: BMPR1A, singlicate
Sequence of 320 wild-type protein kinases (Homo sapiens, UniProt P36894) (P36894 24-532): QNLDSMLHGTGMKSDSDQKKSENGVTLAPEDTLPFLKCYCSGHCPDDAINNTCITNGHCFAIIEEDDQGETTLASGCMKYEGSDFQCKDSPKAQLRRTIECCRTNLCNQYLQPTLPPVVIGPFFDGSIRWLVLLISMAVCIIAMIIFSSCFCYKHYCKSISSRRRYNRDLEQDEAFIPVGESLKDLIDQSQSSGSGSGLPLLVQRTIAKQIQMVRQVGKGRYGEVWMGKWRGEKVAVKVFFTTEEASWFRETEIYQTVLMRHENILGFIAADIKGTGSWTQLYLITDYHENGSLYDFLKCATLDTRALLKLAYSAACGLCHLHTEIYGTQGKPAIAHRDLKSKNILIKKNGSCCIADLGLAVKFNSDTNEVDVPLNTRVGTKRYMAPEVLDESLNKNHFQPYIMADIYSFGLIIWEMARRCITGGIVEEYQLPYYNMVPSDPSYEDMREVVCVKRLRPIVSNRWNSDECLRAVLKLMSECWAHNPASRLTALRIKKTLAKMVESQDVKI
Source text: as §1

[8] = molecular target: 320 wild-type protein kinases (Homo sapiens, UniProt Q86V86); details: singlicate
Source text: as §1

[9] = molecular target: 320 wild-type protein kinases (Homo sapiens, UniProt P17948); details: kinase VEGF-R1, singlicate
Sequence of 320 wild-type protein kinases (Homo sapiens, UniProt P17948) (P17948 27-1338): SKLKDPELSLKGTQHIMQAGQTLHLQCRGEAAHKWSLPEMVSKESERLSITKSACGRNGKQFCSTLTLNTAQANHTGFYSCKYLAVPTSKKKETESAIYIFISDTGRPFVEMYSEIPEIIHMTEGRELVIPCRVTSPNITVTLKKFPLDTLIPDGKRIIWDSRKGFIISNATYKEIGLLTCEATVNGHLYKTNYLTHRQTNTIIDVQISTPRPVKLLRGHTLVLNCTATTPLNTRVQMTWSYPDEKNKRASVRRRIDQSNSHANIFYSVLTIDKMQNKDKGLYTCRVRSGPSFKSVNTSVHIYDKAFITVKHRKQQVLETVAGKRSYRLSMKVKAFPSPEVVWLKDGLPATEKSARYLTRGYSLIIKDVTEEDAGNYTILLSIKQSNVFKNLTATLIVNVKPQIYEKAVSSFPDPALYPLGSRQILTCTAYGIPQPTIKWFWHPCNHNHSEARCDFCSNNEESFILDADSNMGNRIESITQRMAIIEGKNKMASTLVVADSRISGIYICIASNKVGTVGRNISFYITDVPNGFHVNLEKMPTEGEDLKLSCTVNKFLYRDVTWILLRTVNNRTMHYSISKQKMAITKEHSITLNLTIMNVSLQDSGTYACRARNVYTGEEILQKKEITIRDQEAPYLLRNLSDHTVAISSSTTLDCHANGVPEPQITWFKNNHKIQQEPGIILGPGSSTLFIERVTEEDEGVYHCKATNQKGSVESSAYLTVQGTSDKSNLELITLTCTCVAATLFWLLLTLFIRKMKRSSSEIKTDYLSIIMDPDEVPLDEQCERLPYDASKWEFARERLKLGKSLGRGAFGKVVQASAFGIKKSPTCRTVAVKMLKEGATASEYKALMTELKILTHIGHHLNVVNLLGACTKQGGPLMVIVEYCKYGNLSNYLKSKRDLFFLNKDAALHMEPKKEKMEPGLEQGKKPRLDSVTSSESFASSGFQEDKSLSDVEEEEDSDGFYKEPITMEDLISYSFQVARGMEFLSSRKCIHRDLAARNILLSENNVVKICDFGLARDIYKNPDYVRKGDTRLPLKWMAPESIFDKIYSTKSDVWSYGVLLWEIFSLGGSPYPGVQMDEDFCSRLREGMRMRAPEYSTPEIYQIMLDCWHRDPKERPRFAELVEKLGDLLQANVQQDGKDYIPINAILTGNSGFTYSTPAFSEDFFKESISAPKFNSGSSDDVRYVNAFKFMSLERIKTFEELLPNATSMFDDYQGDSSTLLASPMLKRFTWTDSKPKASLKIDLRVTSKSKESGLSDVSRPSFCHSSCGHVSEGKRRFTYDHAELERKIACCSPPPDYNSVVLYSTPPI
Source text: as §1

[10] = molecular target: 320 wild-type protein kinases (Homo sapiens, UniProt O60566); details: BUB1B, singlicate
Sequence of 320 wild-type protein kinases (Homo sapiens, UniProt O60566) (O60566 whole entry): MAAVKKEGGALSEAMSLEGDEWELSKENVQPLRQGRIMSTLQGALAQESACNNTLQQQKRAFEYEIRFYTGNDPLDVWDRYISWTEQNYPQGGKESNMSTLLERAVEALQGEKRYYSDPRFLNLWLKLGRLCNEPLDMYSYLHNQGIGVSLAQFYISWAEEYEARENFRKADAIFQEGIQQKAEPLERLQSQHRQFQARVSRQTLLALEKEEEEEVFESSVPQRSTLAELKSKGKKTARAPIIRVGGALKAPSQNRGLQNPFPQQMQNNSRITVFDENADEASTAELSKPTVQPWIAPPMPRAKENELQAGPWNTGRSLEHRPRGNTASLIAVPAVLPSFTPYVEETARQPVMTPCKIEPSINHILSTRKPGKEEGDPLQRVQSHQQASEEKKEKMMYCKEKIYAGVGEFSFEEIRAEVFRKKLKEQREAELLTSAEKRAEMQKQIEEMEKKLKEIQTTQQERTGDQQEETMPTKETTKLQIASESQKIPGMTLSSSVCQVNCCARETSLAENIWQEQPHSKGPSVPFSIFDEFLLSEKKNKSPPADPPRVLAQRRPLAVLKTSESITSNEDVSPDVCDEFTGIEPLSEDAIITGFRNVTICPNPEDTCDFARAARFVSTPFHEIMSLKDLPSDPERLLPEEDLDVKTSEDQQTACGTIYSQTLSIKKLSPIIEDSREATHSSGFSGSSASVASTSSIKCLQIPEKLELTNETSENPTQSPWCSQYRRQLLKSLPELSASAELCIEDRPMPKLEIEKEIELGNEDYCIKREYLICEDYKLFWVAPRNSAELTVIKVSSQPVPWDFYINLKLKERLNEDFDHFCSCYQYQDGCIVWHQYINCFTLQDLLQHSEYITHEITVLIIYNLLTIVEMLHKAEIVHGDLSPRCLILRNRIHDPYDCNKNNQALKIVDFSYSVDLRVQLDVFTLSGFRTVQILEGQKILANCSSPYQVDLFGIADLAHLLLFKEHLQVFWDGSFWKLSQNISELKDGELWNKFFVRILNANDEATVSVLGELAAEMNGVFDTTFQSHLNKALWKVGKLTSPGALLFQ
Source text: as §1

[11] = molecular target: T2, 320 wild-type protein kinases (Homo sapiens, UniProt P29320); details: singlicate
T2 sequence (P29320 21-983): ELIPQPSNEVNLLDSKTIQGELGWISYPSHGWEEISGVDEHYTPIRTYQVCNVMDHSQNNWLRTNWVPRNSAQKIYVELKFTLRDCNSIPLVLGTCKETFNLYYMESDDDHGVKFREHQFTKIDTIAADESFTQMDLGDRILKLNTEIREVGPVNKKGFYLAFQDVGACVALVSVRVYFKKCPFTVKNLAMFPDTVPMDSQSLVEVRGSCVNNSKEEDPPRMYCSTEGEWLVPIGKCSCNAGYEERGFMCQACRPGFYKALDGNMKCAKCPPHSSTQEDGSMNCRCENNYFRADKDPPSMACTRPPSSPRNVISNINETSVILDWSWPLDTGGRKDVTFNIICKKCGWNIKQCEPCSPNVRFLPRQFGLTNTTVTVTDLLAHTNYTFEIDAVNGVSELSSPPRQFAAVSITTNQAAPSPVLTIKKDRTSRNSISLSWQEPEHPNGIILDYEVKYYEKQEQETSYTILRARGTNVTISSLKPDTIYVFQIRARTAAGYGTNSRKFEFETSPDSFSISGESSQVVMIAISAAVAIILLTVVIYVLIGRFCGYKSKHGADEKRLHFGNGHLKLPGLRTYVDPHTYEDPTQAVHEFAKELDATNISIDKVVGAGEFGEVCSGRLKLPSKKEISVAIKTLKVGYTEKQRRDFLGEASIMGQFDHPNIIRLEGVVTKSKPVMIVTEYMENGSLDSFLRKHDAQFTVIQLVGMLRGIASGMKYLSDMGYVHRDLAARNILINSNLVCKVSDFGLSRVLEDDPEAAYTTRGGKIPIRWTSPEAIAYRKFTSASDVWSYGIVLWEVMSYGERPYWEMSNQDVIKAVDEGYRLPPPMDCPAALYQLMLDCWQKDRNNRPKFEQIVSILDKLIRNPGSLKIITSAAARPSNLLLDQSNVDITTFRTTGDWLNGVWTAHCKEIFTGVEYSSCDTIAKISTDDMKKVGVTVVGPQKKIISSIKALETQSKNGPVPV
Source text: as §1

[12] = molecular target: 320 wild-type protein kinases (Homo sapiens, UniProt P24941); details: singlicate
Source text: as §1

[13] = test system: 320 wild-type protein kinases; details: singlicate
Source text: as §1

SMILES | Residual activity ([1]; 1.0E-06 M) | Residual activity ([1]; 1.0E-07 M) | Residual activity ([2]; 1.0E-06 M) | Residual activity ([2]; 1.0E-07 M) | Residual activity, S6K-beta ([3]; assay conc. 1.0E-06 M) | Residual activity, S6K-beta ([3]; assay conc. 1.0E-07 M) | Residual activity ([4]; 1.0E-06 M) | Residual activity ([4]; 1.0E-07 M) | Residual activity ([5]; 1.0E-06 M) | Residual activity ([5]; 1.0E-07 M) | Residual activity ([6]; DCAMKL2, 1.0E-06 M) | Residual activity ([6]; DCAMKL2, 1.0E-07 M) | Residual activity ([7]; 1.0E-06 M) | Residual activity ([7]; 1.0E-07 M) | Residual activity ([8]; PIM3, 1.0E-06 M) | Residual activity ([8]; PIM3, 1.0E-07 M) | Residual activity, VEGF-R1 ([9]; assay conc. 1.0E-06 M) | Residual activity, VEGF-R1 ([9]; assay conc. 1.0E-07 M) | Residual activity ([10]; 1.0E-06 M) | Residual activity ([10]; 1.0E-07 M) | other results
C#Cc1cc(Nc2ncnc3cc(I)ccc23)ccc1Cl [Compound 41] | 88 % of control | 92 % of control | 100 % of control | 96 % of control | 102 % of control | 96 % of control | 92 % of control | 101 % of control | 124 % of control | 199 % of control | 90 % of control | 87 % of control | 96 % of control | 109 % of control | 83 % of control | 81 % of control | 113 % of control | 92 % of control | 131 % of control | 122 % of control | Residual activity ([11]; EPHA3, 1.0E-06 M): 119 % of control; Residual activity ([11]; EPHA3, 1.0E-07 M): 118 % of control; Residual activity ([12]; CDK2/CycA2, 1.0E-06 M): 90 % of control; Residual activity ([12]; CDK2/CycA2, 1.0E-07 M): 88 % of control; Residual activity ([12]; CDK2/CycE1, 1.0E-06 M): 76 % of control; Residual activity ([12]; CDK2/CycE1, 1.0E-07 M): 97 % of control; Residual activity ([13]; PKC-beta2, 1.0E-06 M): 95 % of control; Residual activity ([13]; PKC-beta2, 1.0E-07 M): 98 % of control
C#Cc1cc(Nc2ncnc3cc(OC)c(OC)cc23)ccc1Cl [Compound 45] | 89 % of control | 115 % of control | 85 % of control | 108 % of control | 86 % of control | 105 % of control | 101 % of control | 109 % of control | 107 % of control | 121 % of control | 103 % of control | 97 % of control | 110 % of control | 102 % of control | 53 % of control | 81 % of control | 85 % of control | 119 % of control | 115 % of control | 137 % of control | Residual activity ([11]; EPHA3, 1.0E-06 M): 111 % of control; Residual activity ([11]; EPHA3, 1.0E-07 M): 128 % of control; Residual activity ([12]; CDK2/CycA2, 1.0E-06 M): 97 % of control; Residual activity ([12]; CDK2/CycA2, 1.0E-07 M): 95 % of control; Residual activity ([12]; CDK2/CycE1, 1.0E-06 M): 86 % of control; Residual activity ([12]; CDK2/CycE1, 1.0E-07 M): 91 % of control; Residual activity ([13]; PKC-beta2, 1.0E-06 M): 95 % of control; Residual activity ([13]; PKC-beta2, 1.0E-07 M): 97 % of control
